Here are results for 3 molecules from US9164084B2, “Methods for determining aggressiveness of a cancer and treatment thereof” (Purdue Research Foundation, priority 2012, dated 2015).

Molecules are shown by their SMILES.

Format in all cases: cell-based, human
Assay [1] relates to PC-3 cells. Kind of assay: Cell growth / viable cell number of PC-3 cells. The settings on record: added LDL or AA (FIG. 46). As to the method:
Because cholesteryl ester accumulation was found in PCa but not in normal prostate, how cell viability could be affected by regulating cholesteryl ester levels with the ACAT inhibitor Avasimibe was evaluated. […] The inhibitory effect of Avasimibe on the growth of PC-3 and LNCaP-HP cells was considerably greater than that in cholesteryl ester poor cancer cells including LNCaP-LP, DU145, and C4-2.

The test system of assay [2] is PC-3 cells. Kind of assay: Spectroscopic imaging and Raman spectral analysis of lipid droplets in PC-3 cells. The text has this:
(§1) A broad spectrum of human prostate epithelial cells has been examined. […] Loss of the tumor suppressor PTEN has been widely observed in both localized and metastatic prostate cancer and correlated with high Gleason grade. With loss of PTEN, PI3K signaling is hyper-activated, which, in turn, leads to AKT activation. […] AKT mediates the phosphorylation and activation of mTOR complex 1 (mTORC1) which plays critical roles in the regulation of protein and lipid biosynthesis. To determine whether the PI3K/AKT/mTOR pathway regulates cholesteryl ester accumulation, both types of cholesteryl ester rich cell lines, PC-3 and high passage LNCaP (LNCaP-HP), were treated with LY294002 (PI3K inhibitor), MK2206 (AKT inhibitor), and Rapamycin (mTOR inhibitor), respectively.
Because cholesterol can be either de novo synthesized via the mevalonate pathway or taken up from exogenous lipoproteins, the source of cholesterol used for cholesteryl ester accumulation was investigated. PC-3 cell were first treated with Simvastatin, an inhibitor of 3-hydroxy-3-methylglutaryl coenzyme A HMG-CoA reductase, the rate-limiting enzyme of the mevalonate pathway. […] In contrast, after treating cells with lipoprotein-deficient serum (LPDS), lipid droplets nearly disappeared in cholesteryl ester rich PC-3 and LNCaP-HP cells (FIG. 29, Panel A), but remained the same amount in cholesteryl ester poor cells including LNCaP-LP, DU145, and C4-2. Re-addition of low-density lipoprotein (LDL) into the LPDS medium restored lipid droplets and cholesteryl ester in both PC-3 and LNCaP-HP cells (FIG. 29, Panel B).
(§2) It is well known that LDL enters a cell via LDL receptor (LDLr) and traffics to the late endosome and lysosome where it is hydrolyzed to free fatty acids and free cholesterol. The excess free cholesterol together with the fatty acyl CoA substrate is then converted to cholesteryl ester by Acyl coenzyme A: cholesterol acyltransferase (ACAT) and stored in lipid droplets. Thus, cells were separately treated with Avasimibe and Sandoz 58-035, two different ACAT inhibitors. […] The significant reduction of cholesteryl ester accumulation upon Avasimibe treatment was further confirmed by an independent biochemical assay of cell lysates.

Assay [3] deals with LNCaP-HP cells. Kind of assay: Spectroscopic (SRL) imaging and Raman spectral analysis of lipid droplets in LNCaP-HP cells. As to the method: The LNCaP-HP cells were treated with an ACAT inhibitor, avasimibe (structure shown in FIG. 13, Panel D), at 10 μM for 2 days.
as §1, §2

Consider `CCCCC/C=C\C/C=C\C/C=C\C/C=C\CCCC(=O)O` [AA, arachidonic acid], for which the “growth of PC-3 cells” value in assay [1] is given as “promoted the growth of PC-3 cells in a dose-dependent manner”.
As for `NC1(c2ccc(-c3nc4ccn5c(=O)[nH]nc5c4cc3-c3ccccc3)cc2)CCC1` [MK2206], the “autofluorescent granules indicative of autophagy” value in assay [2] and in assay [3] was “induced massive accumulation of autofluorescent granules” each time. In addition, the lipid droplet amount entry in assay [2] and in assay [3] was “radically removed lipid droplets” in each case.
In the case of `CCCCCCCCCC[Si](C)(C)CCC(=O)NC(Cc1ccc(C)cc1)c1ccccc1` (stereo not drawn) [Sandoz 58-035], the lipid droplet amount result in assay [2] and in assay [3] was “remaining unchanged” throughout. The cholesteryl ester accumulation result in assay [2] (ACAT inhibitor treatment) and in assay [3] (ACAT inhibitor treatment) was “effectively suppressed cholesteryl ester accumulation” throughout.
